Data from PMC12495443, “Developing inhibitors of the guanosine triphosphate hydrolysis accelerating activity of Regulator of G protein Signaling-14 [drawing 1]” (The Journal of Biological Chemistry, 2025).
Where a chain is given by its changes, count along the chain named. “Also recorded” adds a separate entry of the source.

What was measured:
[1] = molecular target: T1, cysteine-less RGS14 RGS-box protein (Homo sapiens, UniProt O43566, C100S/C183S); test: Transcreener GDP RGScreen assay with cysteine-less RGS14 RGS-box; assay type: biochemical; conditions: range given jointly for cysteine-less RGS14 and RGS12 proteins; read-out: estimated IC50, cysteine-less RGS14 RGS-box
T1 construct: human RGS14 RGS-box (aa 46–195 of UniProt O43566); host or cells: E. coli
T1 sequence (O43566 46-195 C100S/C183S): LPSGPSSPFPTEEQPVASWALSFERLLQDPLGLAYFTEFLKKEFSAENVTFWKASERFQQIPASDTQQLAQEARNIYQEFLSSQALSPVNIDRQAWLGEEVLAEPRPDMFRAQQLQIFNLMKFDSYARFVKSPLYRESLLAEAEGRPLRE
Excerpt: (§1) Given the earlier experience with screening hit CCG-4986 being a covalent modifier of RGS4 cysteine residues ([35]), we sought to exclude protein-thiol reactivity as a potential mechanism of action of the active compounds derived from the AtomNet virtual screening effort ([55]) and SAR campaign follow-ups. To address this possibility and screen out thiol-reactive hits, cysteine-lacking versions of recombinant proteins spanning the RGS-boxes of RGS14 and RGS12 were purified from E. coli cultures.
(§2) Reagents and protocols for the fluorescence anisotropy-based Transcreener GDP RGScreen assay using a rate-altered, double point-mutant, recombinant Gαi1 protein have been extensively described previously ([43], [44]); reactions were always performed so that total GTP converted over the time course was consistently less than 10% of reaction maximum input. Specific methods for its application in assessing RGS14 and RGS12 GAP activity are summarized as follows. Open-reading frames (ORFs) encoding wild-type versions of the human RGS14 RGS-box (aa 46–195 of UniProt O43566) and human RGS12 RGS-box (aa 695–843 of UniProt O14924) were each sub-cloned in-frame with an N-terminal hexahistidine (His6) expression tag in the plasmid pET30a, expressed in E. coli cultures, and then purified by nickel-nitriloacetate (Ni-NTA) and size-exclusion (Superdex 200) column chromatographies by GenScript using previously described methods ([35]). […]
Supplementary Figure S5. […] (A,B) Recombinant, cysteine residue-lacking (“-cys”) RGS14 RGS-box protein (panel A) and cysteine residue-lacking RGS12 RGS-box protein ([…]) were both observed, in a concentration-dependent fashion (indicated in ng/µL by color), to increase steady-state GDP production by 0.5 ng/µL Gai1(DM) protein in a 20 µL final reaction volume, as measured by the Transcreener® GDP-detection RGScreen™ assay and detected by the change in polarization (ΔmP) at each indicated time point (“enz” = Gai1(DM) protein a.k.a. […]

[2] = molecular target: T2, human RGS12 RGS-box (wild-type) (Homo sapiens, UniProt O14924); design: method as in earlier work; conditions: Transcreener GDP RGScreen; ref (8); cited from earlier work
T2 construct: human RGS12 RGS-box (aa 695–843 of UniProt O14924); host or cells: E. coli
T2 sequence (O14924 695-843): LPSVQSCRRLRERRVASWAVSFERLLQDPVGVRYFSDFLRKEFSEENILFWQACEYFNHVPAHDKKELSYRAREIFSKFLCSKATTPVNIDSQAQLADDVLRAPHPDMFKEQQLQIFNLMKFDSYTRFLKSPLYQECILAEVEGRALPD

[3] = molecular target: T3, human RGS14 RGS-box (wild-type) (Homo sapiens, UniProt O43566); design: method as in earlier work; conditions: Transcreener GDP RGScreen; ref (8); cited from earlier work
T3 construct: human RGS14 RGS-box (aa 46–195 of UniProt O43566); host or cells: E. coli
T3 sequence (O43566 46-195): T1 sequence (O43566 46-195 C100S/C183S) with S55C, S138C

[4] = molecular target: T3, human RGS14 RGS-box (wild-type); test: Transcreener GDP RGScreen fluorescence polarization assay of RGS14 RGS-box GAP activity on Gαi1(DM); assay type: biochemical; conditions: for IC50: wild-type RGS14 RGS-box GAP activity, Gαi1(DM), Transcreener GDP RGScreen, read-out: RGS14 pIC50 (converted)
Summary of the method: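 Steady-state GTP hydrolysis by rate-altered double point-mutant Gαi1 was read by Transcreener GDP fluorescence polarization, with GTP conversion kept below 10% of maximum input. The E. coli-expressed, N-terminal His6-tagged wild-type RGS-boxes were RGS12 aa 695–843 and RGS14 aa 46–195.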

[5] = molecular target: T4, cysteine-less RGS12 RGS-box protein (Homo sapiens, UniProt O14924, C701S/C748S/C775S/C831S); test: Transcreener GDP RGScreen assay with cysteine-less RGS12 RGS-box; assay type: biochemical; conditions: range given jointly for cysteine-less RGS14 and RGS12 proteins; read-out: estimated IC50, cysteine-less RGS12 RGS-box
T4 construct: human RGS12 RGS-box (aa 695–843 of UniProt O14924); host or cells: E. coli
T4 sequence (O14924 695-843 C701S/C748S/C775S/C831S): T2 sequence (O14924 695-843) with C7S, C54S, C81S, C137S
Excerpt: as §1
as §2, with “Specific methods for its application in assessing RGS14 and RGS12 GAP activity are summarized as follows.” left out

[6] = molecular target: T2, human RGS12 RGS-box (wild-type); test: Transcreener GDP RGScreen fluorescence polarization assay of RGS12 RGS-box GAP activity on Gαi1(DM); assay type: biochemical; conditions: wild-type RGS12 RGS-box GAP activity, Gαi1(DM), read-out: RGS12 pIC50 (converted)
Excerpt: We previously described work with BellBrook Labs creating the Transcreener GDP RGScreen fluorescence polarization assay of steady-state GTP hydrolysis, leveraging a double point-mutant in the Gα enzyme to make GTP hydrolysis, rather than GDP (product) release, the rate-limiting step for multiple rounds of GTP conversion ([57], [59]). […] Titrating inputs of the double point-mutant (“DM”) Gαi1 and RGS-box recombinant proteins (Fig. S2, B and C) established a robust, medium-throughput assay for evaluating potential RGS14 and RGS12 inhibitors, with “assay quality” Z′ scores ([60]) above 0.76 for each target (Fig. S2D).
Reagents and protocols for the fluorescence anisotropy-based Transcreener GDP RGScreen assay using a rate-altered, double point-mutant, recombinant Gαi1 protein have been extensively described previously ([43], [44]); reactions were always performed so that total GTP converted over the time course was consistently less than 10% of reaction maximum input. Specific methods for its application in assessing RGS14 and RGS12 GAP activity are summarized as follows. Open-reading frames (ORFs) encoding wild-type versions of the human RGS14 RGS-box (aa 46–195 of UniProt O43566) and human RGS12 RGS-box (aa 695–843 of UniProt O14924) were each sub-cloned in-frame with an N-terminal hexahistidine (His6) expression tag in the plasmid pET30a, expressed in E. coli cultures, and then purified by nickel-nitriloacetate (Ni-NTA) and size-exclusion (Superdex 200) column chromatographies by GenScript using previously described methods ([35]). These recombinant His6-tag fusion proteins were stored at −80 °C in storage buffer (150 mM NaCl, 50 mM Tris-HCl pH 8.0, 10% glycerol) before thawing and use. Cysteine-less versions were similarly produced by ORF site-directed mutagenesis: for RGS14, codons for cysteine residues 47 and 130 (numbered as in PDB id 2JNU) were replaced with serine codons; for RGS12, codons for cysteines 4, 51, 78, and 134 (numbered in relation to PDB id 2EBZ) were replaced with serine codons. Use of Transcreener GDP-detection reagents to assess compound inhibition of Naegleria fowleri Gα7 protein GTPase activity ([83]) has previously been described ([84]).

THP-1 cell line = test: Cytotoxicity assays (CytoTox-Glo, CytoTox 96); assay type: cell-based; conditions: THP-1 cells, overnight, CytoTox-Glo and CytoTox 96
Procedure: To evaluate cellular toxicity of active compounds, we employed the immortalized human monocytic THP1-Dual cell line (InvivoGen) in two orthogonal cytotoxicity assays: ATP-dependent luminescence (CytoTox-Glo) and colorimetric lactate dehydrogenase (LDH) release (CytoTox 96). For each assay, compounds were serially diluted 2-fold starting at 250 μM and added to 96-well flat-bottom tissue culture plates (Thermo Scientific Nunc, Cat# 165306). THP1-Dual cells were then seeded at 20,000 to 30,000 cells per well in 100 μl RPMI 1640 media supplemented with 10% fetal bovine serum (Gibco). Plates were gently mixed and incubated overnight at 37 °C in a humidified 5% CO2 incubator. For the CytoTox-Glo assay (Promega, Cat# G9291), 50 μl of assay reagent was added to each well. Plates were mixed briefly, sealed, and incubated at room temperature for 15 min before reading luminescence on a TECAN Infinite M1000 Pro plate reader to quantify dead-cell signal. Subsequently, 50 μl of a digitonin-containing lysis solution was added to each well, followed by a second luminescence read after 15 min to assess total cell content. Percent cytotoxicity was calculated per manufacturer instructions. For the CytoTox 96 Non-Radioactive Cytotoxicity Assay (Promega, Cat# G1780), after overnight compound treatment, LDH release into the culture medium was measured by adding the provided substrate mix. Absorbance was read at 490 or 492 nm within 1 h of adding the stop solution. Assay optimization and data normalization were conducted according to the manufacturer’s technical manual.

[7] = molecular target: T5, RGS14 RGS-box (GAP activity on wild-type Gαi1) (Homo sapiens, UniProt O43566); test: Single-turnover [γ-33P]GTP hydrolysis assay of RGS-box GAP activity; assay type: biochemical; conditions: wild-type Gαi1, concentration-dependent
T5 sequence (O43566 67-184 limits assumed): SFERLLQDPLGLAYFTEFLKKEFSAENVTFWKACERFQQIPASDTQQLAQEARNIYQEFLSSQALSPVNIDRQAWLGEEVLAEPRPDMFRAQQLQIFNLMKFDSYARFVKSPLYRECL
Excerpt: To further evaluate the functional activity of these triazolothiadiazine derivatives, and especially to eliminate concerns of misascribing GAP-inhibitory activity to potential assay interference, we tested two representative compounds—Z55660043 and Z55627844—in the gold-standard single-turnover radioactive GTP hydrolysis assay ([7], [58]) (Fig. 6).
The single-turnover radiolabeled-GTP hydrolysis assay is the gold standard assay for RGS-box GAP activity, first described using [γ -^32P]GTP by Berman et al. ([7]) and recently modified for modern performance ([91], [92], [93], [94]) to use readily available [γ-^33P]GTP substrate and perchloric acid quenching. The assay was performed by first pre-loading wild-type (WT) Gα protein (i.e., 750 nM purified, recombinant, wild-type-sequence human Gαi1 protein) with a slight excess (1 μM) of [γ-^33P]GTP for 15 min at 30 °C. Assay initiation involved adding purified recombinant RGS protein previously pre-incubated for 30 min at 30 °C with a candidate inhibitor. […] Supernatant aliquots were then added to liquid scintillation fluid and [^33P]-Pi content (i.e., hydrolyzed GTP) was quantified with a scintillation counter with an appropriate β-transmission window.

IC50 [1] | IC50 [4] | IC50 [5] | IC50 [6] | Ratio (RGS14 pIC50 / RGS12 pIC50) ([4]; values > 1.0 reflect RGS14 selectivity) | Compound | estimated pIC50 RGS12 [2] | estimated pIC50RGS14 [3] | cytotoxicity (THP-1 cell line) | inhibition of RGS14 RGS-box-mediated acceleration of [γ-33P]GTP hydrolysis [7]
26 to 64 µM | 63.1 µM | 26 to 64 µM |  |  | COc1ccc2[nH]c(SC(C)C(=O)c3c(F)cc(F)cc3F)nc2c1 (stereo not shown) [Z1098346112, 2-[(5-methoxy-1H-1,3-benzodiazol-2-yl)sulfanyl]-1-(2,4,6-trifluorophenyl)propan-1-one] | 4.4 | 4.2 |  | 
 | 3.63 µM |  | 21.9 µM | 1.17 | COc1ccc(OCc2nnc3n2N=C(c2cc4ccccc4o2)CS3)cc1 [Z55627844] |  |  | without measurable cytotoxicity; also recorded: no overt cytotoxicity | inhibit RGS14 RGS-box-mediated acceleration
